Assay results reported in patent publication US20220202624A1, “SELF-ADHESIVE SILICONE GEL LOADED WITH MICROPARTICLES, PARTICLES WITH IMPROVED ADHESION” (priority 2019, published 2022).

Assays:
[1] = Gel consistency: elastic shear modulus G′ by rheometer; assay type: physicochemical; settings: 4.8% Isopropyl Myristate in gel, vs pure gel (Table 7)
Source text: 1. Preparation of Materials for Performance Characterization. • Characterization of rheological properties: for these characterizations, a ˜0.6 g sample of non-crosslinked SACSG should be placed in the measuring cell. In the case of mixtures obtained by the direct mode, a sample of the degassed mixture whose preparation has just been described is used. If Parts A′ and B′ which have been obtained by the indirect method are available, both Parts A′ and B′ are rehomogenised if necessary, equivalent masses of A′ and B′ are weighed and mixed with a spatula; after degassing at 20-50 mbar at room temperature until the bubbles are eliminated (about 10 minutes), a sample of the mixture may be taken and placed in the measuring cell. […]
The consistency of the gels is characterized by their elastic shear modulus, which is measured as follows: • rheometer: Thermofisher RS 6000. • Plan-Plan cell: rotor with 20 mm radius, rotor/stator gap=0.5 mm. • mode: imposed stress=10 Pa. • oscillation frequency: 1 Hz. • temperature: sample installation at 30°. • closing of the cell in two steps: 3 mm/mn until D=1.5 mm, then 0.15 mm/mn until D=0.5 mm. • temperature rise to 70° in 60 s. • measurement G′-G″ at 70° for 4000 s, return to 30°. […]

[2] = Miscibility / solubility of added substances in self-adhesive silicone gel (SASG); settings: liquid in SASG

| drop of G′ value [1] [%] | miscibility with SASG [2] | SMILES |
| --- | --- | --- |
| 20 | – | CCCCCCCCCCCCCC(=O)OC(C)C [Isopropyl Myristate] |
| – | 12-15% | COC(=O)c1ccccc1O [Methyl Salicylate] |
